Test results taken from patent publication US8618068B2, “Methods and low dose regimens for treating red blood cell disorders” (priority 2009, dated 2013).
Where “and” joins values, the source holds several entries; their conditions need not be identical. Equal values may be shown once.

Key:
human γ-globin mRNA = experiment: Human γ-globin mRNA synthesis in βYAC transgenic mice; assay type: in vivo; conditions: IP 500 mg/kg/day
Source text: Transgenic mice containing the human β globin gene locus in a yeast artificial chromosome (βYAC) displaying the correct developmental regulation of ε-, γ-, and β-globin genes (with a silenced y-globin gene in the adult stage) were used to study the effects of DMB on γ-globin induction and erythroid cell production. In the μLCR-human A γ-globin transgenic mice, the y-globin mRNA expression relative to murine α-globin mRNA was increased by a mean of 1.8-fold above the baseline after treatment with DMB. In the βYAC transgenic mice at intraperitoneal (IP) doses of 500 mg/kg/day, DMB induced a 2-fold increase in human γ-globin mRNA synthesis relative to that of total non-α-globin. This level of induction was similar to that seen with 1,000 mg/kg/day of butyrate, and the changes were observed from 3 days after treatment initiation and persisted until 3 to 5 days after treatment termination.

γ globin chain = γ globin chain protein synthesis in anemic baboons; assay type: in vivo; conditions: mean of three animals
Procedure: Expression of γ-globin and erythroid cell production was evaluated in a primate model in which baboons are phlebotomized on a daily basis to simulate the chronic RBC destruction associated with hemoglobinopathies. In this model, baboons, aged 2 to 3 years, had 2.5 to 7 mL/kg of blood withdrawn daily, and the volume replaced with an identical volume of normal saline. Hemoglobin levels were lowered relative to control levels, but were maintained between 6.5 to 7.5 g/dL, the level necessary for the modulation of globin genes in this animal species. The animals were supplemented with iron dextran and folic acid. The phlebotomy regimen effectively exchanged the animals' total blood volume every 10 to 20 days.
Globin chain protein synthesis was measured in DMB treated animals using ^3H-leucine-labeled reticulocytes before and 2 and 4 days after treatment. Complete blood counts and reticulocyte counts were monitored 3 times per week and plasma concentrations of the test article was determined. DMB was administered intravenously (IV, daily) or orally via nasogastric gavage under light anesthesia (on 3 alternating days per week for up to 6 weeks), on a dose-escalation schedule with starting doses of 500 to 800 mg/kg. If γ globin induction was observed, lower doses (40-200 mg/kg) were tested. Recombinant human erythropoietin (rhu-EPO) was also administered in separate treatment courses to 2 baboons at doses of 300 U/kg three times per week subcutaneously as a positive control for the erythropoietic effects of DMB. Treatments were performed in individual baboons.
Induction of γ globin chain expression was evaluated by measuring γ globin protein synthesis.

CYP1A2 = biological target: T1, CYP1A2 (Homo sapiens, UniProt P05177); experiment: Cytochrome P450 inhibition in human hepatic microsomes; assay type: in vitro ADME
T1 construct: from tissue; host or cells: human hepatic microsomes
Procedure: (§1) The inhibitory potential of DMB on the human cytochrome P450 activities involved in the metabolism of phenacetin O-deethylase (CYP1A2), bupropion hydroxylase (CYP2B6), amodiaquine N-deethylase (CYP2C8), diclofenac 4′-hydroxylase (CYP2C9), S-mephenyloin 4′-hydroxylase (CYP2C19), bufuralol 1′-hydroxylase (CYP2D6), testosterone 6β-hydroxylase (CYP3A), and midazolam 1′-hydroxylase (CYP3A) was assessed in vitro using human hepatic microsomes. Microsomes were incubated with isoenzyme-selective substrates at concentrations approximating the Km value in the absence and presence of DMB (at concentrations ranging from 0.1 to […]). The extent of inhibition was assessed by comparing activities from control and DMB-treated microsomes. […] Percent activity remaining was high for all cytochrome P450 assays with 80% activity remaining compared with control activities.

CYP2B6 = biological target: T2, CYP2B6 (Homo sapiens, UniProt P20813); experiment: as above; assay type: in vitro ADME
T2 construct: from tissue; host or cells: human hepatic microsomes
Procedure: as §1

CYP2C19 = biological target: T3, CYP2C19 (Homo sapiens, UniProt P33261); experiment: as above; assay type: in vitro ADME
T3 construct: from tissue; host or cells: human hepatic microsomes
Procedure: as §1

CYP2C8 = biological target: T4, CYP2C8 (Homo sapiens, UniProt P10632); experiment: as above; assay type: in vitro ADME
T4 construct: from tissue; host or cells: human hepatic microsomes
Procedure: as §1

CYP2C9 = biological target: T5, CYP2C9 (Homo sapiens, UniProt P11712); experiment: as above; assay type: in vitro ADME
T5 construct: from tissue; host or cells: human hepatic microsomes
Procedure: as §1

CYP2D6 = biological target: T6, CYP2D6 (Homo sapiens, UniProt P10635); experiment: as above; assay type: in vitro ADME
T6 construct: from tissue; host or cells: human hepatic microsomes
Procedure: as §1

CYP3A = experiment: as above; assay type: in vitro ADME
Procedure: as §1

[1] = 28-Day repeat dose toxicity study in rats; assay type: in vivo, Sprague Dawley rats
Source text: Completed toxicology studies conducted with DMB include a single-dose toxicity study in Sprague-Dawley rats, escalating dose toxicity study in Beagle dogs, a repeat dose study of 14-Day duration in Sprague-Dawley rats and repeat-dose toxicity studies of 28-Day duration in Sprague-Dawley rats and Beagle dogs, and 26-Week studies in Sprague-Dawley rats and Beagle dogs. […] Reproductive toxicity studies include two dose-range finding studies, one in Sprague-Dawley rats, the other in New Zealand white rabbits. DMB was administered once a day (QD) orally via gavage; doses are expressed as the sodium salt. In addition, an array of genotoxicity studies were conducted with DMB.
There were no histologic correlates with these findings. […] These changes in organ weight were not associated with abnormal pathology and not considered adverse.
Kidney weight was not increased in the single surviving 2,000/1,500 mg/kg/day male. […] There were no test article-related histomorphologic alterations consistent with the increase in absolute or relative kidney weights at either dose level.
Several clinical pathology changes occurred in the 28-Day Sprague Dawley rat study. […] At ≧1,000 mg/kg/day, decreases in Hgb, Hct, MCV, and MCHC, were observed. Decreases in Hgb, Hct, and MCV were also seen in 500 mg/kg/day females. Activated partial thromboplastin time was decreased in males at ≧1,000 mg/kg/day and females at 2,000/1,500 mg/kg/day and prothrombin time was increased in males of both groups. […] These serum chemistry changes were associated with the decreases seen in body weights and food consumption in these groups.

[2] = compared with control activities

T1 sequence (P05177 whole entry): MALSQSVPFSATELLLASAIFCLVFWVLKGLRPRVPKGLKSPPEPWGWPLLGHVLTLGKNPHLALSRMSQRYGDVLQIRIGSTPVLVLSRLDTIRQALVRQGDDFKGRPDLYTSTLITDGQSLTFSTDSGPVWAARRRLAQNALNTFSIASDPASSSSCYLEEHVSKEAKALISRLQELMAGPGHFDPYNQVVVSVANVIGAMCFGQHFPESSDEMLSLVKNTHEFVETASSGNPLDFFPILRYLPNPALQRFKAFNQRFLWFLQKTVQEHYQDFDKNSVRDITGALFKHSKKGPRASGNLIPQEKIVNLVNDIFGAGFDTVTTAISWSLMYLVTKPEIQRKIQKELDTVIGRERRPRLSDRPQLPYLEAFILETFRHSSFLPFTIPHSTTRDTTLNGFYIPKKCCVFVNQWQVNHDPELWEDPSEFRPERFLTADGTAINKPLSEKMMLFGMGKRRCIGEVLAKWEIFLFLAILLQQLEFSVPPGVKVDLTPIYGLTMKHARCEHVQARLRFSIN
T5 sequence (P11712 whole entry): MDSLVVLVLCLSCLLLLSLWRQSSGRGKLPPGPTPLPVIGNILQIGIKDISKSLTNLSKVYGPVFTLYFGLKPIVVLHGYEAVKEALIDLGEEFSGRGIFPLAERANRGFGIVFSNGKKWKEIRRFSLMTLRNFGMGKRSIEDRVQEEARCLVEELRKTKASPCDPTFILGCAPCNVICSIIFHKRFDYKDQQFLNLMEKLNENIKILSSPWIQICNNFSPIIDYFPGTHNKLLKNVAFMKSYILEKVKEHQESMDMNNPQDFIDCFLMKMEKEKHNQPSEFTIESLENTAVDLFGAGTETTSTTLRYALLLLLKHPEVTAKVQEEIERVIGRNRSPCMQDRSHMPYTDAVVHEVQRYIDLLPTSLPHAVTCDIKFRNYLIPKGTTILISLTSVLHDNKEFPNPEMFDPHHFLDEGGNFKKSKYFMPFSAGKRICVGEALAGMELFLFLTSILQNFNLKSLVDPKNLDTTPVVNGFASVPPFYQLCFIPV
T2 sequence (P20813 whole entry): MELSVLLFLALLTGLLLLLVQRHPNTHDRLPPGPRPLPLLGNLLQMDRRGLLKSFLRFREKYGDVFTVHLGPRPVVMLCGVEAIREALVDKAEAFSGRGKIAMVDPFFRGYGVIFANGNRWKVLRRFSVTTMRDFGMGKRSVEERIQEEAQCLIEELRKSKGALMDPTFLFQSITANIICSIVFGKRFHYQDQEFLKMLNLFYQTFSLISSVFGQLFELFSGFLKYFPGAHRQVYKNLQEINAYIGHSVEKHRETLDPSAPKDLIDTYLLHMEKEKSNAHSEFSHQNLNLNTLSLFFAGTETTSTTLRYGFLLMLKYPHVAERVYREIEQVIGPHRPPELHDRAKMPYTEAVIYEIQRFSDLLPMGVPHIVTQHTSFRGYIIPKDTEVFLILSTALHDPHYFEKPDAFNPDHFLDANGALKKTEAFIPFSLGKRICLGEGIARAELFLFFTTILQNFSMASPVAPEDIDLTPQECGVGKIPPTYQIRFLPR
T3 sequence (P33261 whole entry): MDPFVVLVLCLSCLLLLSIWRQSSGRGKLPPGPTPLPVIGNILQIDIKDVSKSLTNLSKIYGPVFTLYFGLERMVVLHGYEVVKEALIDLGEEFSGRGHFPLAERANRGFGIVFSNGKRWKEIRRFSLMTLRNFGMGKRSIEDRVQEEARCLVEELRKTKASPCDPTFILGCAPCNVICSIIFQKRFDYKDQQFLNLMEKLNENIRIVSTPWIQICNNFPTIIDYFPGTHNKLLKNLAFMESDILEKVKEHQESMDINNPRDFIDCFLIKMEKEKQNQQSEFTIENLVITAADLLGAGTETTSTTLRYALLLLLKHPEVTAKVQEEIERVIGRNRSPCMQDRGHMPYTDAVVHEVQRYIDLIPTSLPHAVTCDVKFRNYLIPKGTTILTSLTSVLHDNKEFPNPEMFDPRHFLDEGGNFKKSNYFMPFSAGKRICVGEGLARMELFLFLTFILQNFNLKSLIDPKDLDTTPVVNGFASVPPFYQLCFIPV
T4 sequence (P10632 whole entry): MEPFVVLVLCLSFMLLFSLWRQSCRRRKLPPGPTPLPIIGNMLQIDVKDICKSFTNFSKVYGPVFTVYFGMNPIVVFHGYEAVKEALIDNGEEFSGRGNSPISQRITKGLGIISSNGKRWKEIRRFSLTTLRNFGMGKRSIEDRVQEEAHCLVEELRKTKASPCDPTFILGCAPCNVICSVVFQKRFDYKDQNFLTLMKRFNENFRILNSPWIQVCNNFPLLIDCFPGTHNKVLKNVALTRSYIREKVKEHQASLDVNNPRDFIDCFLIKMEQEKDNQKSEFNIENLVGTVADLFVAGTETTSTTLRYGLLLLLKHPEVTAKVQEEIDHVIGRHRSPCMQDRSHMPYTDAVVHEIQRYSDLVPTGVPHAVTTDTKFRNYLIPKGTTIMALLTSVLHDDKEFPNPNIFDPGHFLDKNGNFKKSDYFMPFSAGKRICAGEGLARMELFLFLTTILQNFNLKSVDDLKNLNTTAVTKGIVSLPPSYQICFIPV
T6 sequence (P10635 whole entry): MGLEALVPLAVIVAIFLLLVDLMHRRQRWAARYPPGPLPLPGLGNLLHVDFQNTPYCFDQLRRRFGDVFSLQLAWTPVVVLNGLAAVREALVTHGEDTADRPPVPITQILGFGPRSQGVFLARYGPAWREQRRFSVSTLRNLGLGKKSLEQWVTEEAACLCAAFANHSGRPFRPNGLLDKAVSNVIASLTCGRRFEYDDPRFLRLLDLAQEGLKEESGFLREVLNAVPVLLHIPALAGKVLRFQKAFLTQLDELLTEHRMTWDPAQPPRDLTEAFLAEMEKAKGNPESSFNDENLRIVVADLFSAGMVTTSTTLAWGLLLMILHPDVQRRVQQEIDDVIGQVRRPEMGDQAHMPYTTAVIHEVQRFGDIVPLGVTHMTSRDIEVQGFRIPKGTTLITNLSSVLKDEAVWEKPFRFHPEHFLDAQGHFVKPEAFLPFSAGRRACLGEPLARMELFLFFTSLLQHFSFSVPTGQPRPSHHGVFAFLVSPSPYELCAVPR

## CCC(C)(C)C(=O)[O-].[Na+] [DMB, Sodium 2,2-dimethylbutyrate]
Human γ-globin mRNA
  increase in human γ-globin mRNA synthesis relative to total non-α-globin: 2 fold
γ globin chain
  Increase % γ Globin Chain Synthesis: 6.6%
  Increase Fold (γ globin chain synthesis): 2.9
γ globin chain; baseline 3.4
  % γ Globin Chain Synthesis, Treatment: 10.0%
CYP1A2; DMB up to 300 μM
  inhibition of phenacetin O-deethylase (CYP1A2): no significant inhibition
CYP1A2; [2]
  Percent activity remaining, phenacetin O-deethylase (CYP1A2): 80%
CYP2B6; DMB up to 300 μM
  inhibition of bupropion hydroxylase (CYP2B6): no significant inhibition
CYP2B6; [2]
  Percent activity remaining, bupropion hydroxylase (CYP2B6): 80%
CYP2C19; DMB up to 300 μM
  inhibition of S-mephenyloin 4′-hydroxylase (CYP2C19): no significant inhibition
CYP2C19; [2]
  Percent activity remaining, S-mephenyloin 4′-hydroxylase (CYP2C19): 80%
CYP2C8; DMB up to 300 μM
  inhibition of amodiaquine N-deethylase (CYP2C8): no significant inhibition
CYP2C8; [2]
  Percent activity remaining, amodiaquine N-deethylase (CYP2C8): 80%
CYP2C9; DMB up to 300 μM
  inhibition of diclofenac 4′-hydroxylase (CYP2C9): no significant inhibition
CYP2C9; [2]
  Percent activity remaining, diclofenac 4′-hydroxylase (CYP2C9): 80%
CYP2D6; DMB up to 300 μM
  inhibition of bufuralol 1′-hydroxylase (CYP2D6): no significant inhibition
CYP2D6; [2]
  Percent activity remaining, bufuralol 1′-hydroxylase (CYP2D6): 80%
CYP3A; DMB up to 300 μM
  inhibition of midazolam 1′-hydroxylase (CYP3A): no significant inhibition
  inhibition of testosterone 6β-hydroxylase (CYP3A): no significant inhibition
CYP3A; [2]
  Percent activity remaining, midazolam 1′-hydroxylase (CYP3A): 80%
  Percent activity remaining, testosterone 6β-hydroxylase (CYP3A): 80%
[1]; 2,000/1,500 mg/kg/day
  RBC, lymphocyte, and leukocyte counts: decreased
[1]; female, Sprague Dawley, rat, in vivo
  NOAEL at 28 days: 200 mg/kg/day and 32 mg/kg
[1]; males 1,000 mg/kg/day
  aspartate aminotransferase (AST): slight increases
[1]; males 1,000 mg/kg/day, females 2,000/1,500 mg/kg/day
  alanine aminotransferase (ALT): slight increases
[1]; males 500 and 1,000 mg/kg/day, females 1,000 mg/kg/day
  mean absolute and relative kidney weights: statistically significant, test article-related increases
[1]; males and females at 1,000 mg/kg/day
  mean absolute and relative liver weights: statistically significant, test article-related increases
[1]; males of both groups
  prothrombin time: increased
[1]; males ≧1,000 mg/kg/day, females 2,000/1,500 mg/kg/day
  Activated partial thromboplastin time: decreased
[1]; ≧1,000 mg/kg/day
  Hgb, Hct, MCV, and MCHC: decreases
